Among the test systems are A549; HOP-62; Malme-3M; UO-31; SW-620; HL-60; OVCAR-3; HCT-15; SF-268; NCI-H460; UACC-62; A498; MDA-N; MCF7; UACC-257; CAKI-1; SK-OV-3; DU-145; BT-549.
Test in all cases: NCI-60 cell line screen, 48 h

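The compound was tested at five concentrations on cells cultured in 96-well plates, with a 48-hour exposure period. Here, GI50 denotes the concentration required for 50% inhibition of growth.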 Activity calls are given as the source filed them. No stated cut-off is given here; in the data, active = GI50 up to about 1.1 µM and inactive = higher.

Turning to `COC(=O)c1c(C(=O)OC)c2cc(C(=O)c3ccccc3)ccn2c1Cl`, the GI50 with A549 is 41.5 µM (inactive); in the experiment on HOP-62, 37.2 µM (inactive); in the experiment with Malme-3M, 52.7 µM (inactive); with UO-31, 28.2 µM (inactive); with SW-620, 71 µM (inactive); with HL-60, 22.8 µM (inactive). For the same molecule, the GI50 in the experiment with OVCAR-3 was 21.6 µM (inactive); with HCT-15 it was 20.9 µM; in the experiment on SF-268, 43.2 µM (inactive); in the experiment on NCI-H460 it was 50 µM (inactive); with UACC-62, 24.9 µM (inactive).

As for `CCC1(O)CC2CC(=O)OC2C1O` (stereo unspecified), the GI50 in the experiment with A549, with A498, with HOP-62, with Malme-3M, with UO-31 and in the experiment on MDA-N was > 100 µM (inactive) throughout. Besides, the GI50 with MCF7 was > 100 µM (inactive); in the experiment on SW-620 it was > 100 µM (inactive); in the experiment with UACC-257, > 100 µM (inactive); in the experiment on OVCAR-3 it was > 100 µM (inactive); with HCT-15, greater than 100 µM; with SF-268, > 100 µM (inactive). Besides, the GI50 in the experiment with CAKI-1, with SK-OV-3, in the experiment on NCI-H460, with UACC-62 and with DU-145 was > 100 µM (inactive) each time.

Consider `COC(=O)CNC(=O)CCSc1nnc(COc2ccc(Cl)cc2)n1-c1ccccc1`, for which the GI50 with A549 was 68.2 µM (inactive); in the experiment on A498, > 100 µM (inactive); in the experiment on HOP-62, > 100 µM (inactive); in the experiment with Malme-3M, 25.8 µM (inactive); with UO-31 it was 34.8 µM (inactive); in the experiment with MDA-N, 16.1 µM (inactive). Besides, the GI50 with MCF7 is 71.3 µM (inactive); with SW-620, 39.5 µM (inactive); in the experiment with HL-60, 30 µM (inactive); in the experiment with UACC-257, 19.1 µM (inactive); in the experiment with OVCAR-3, 30.9 µM (inactive); in the experiment with HCT-15, 74.6 µM. The GI50 in the experiment on SF-268 is 20.3 µM (inactive); in the experiment on CAKI-1 it was 12 µM (inactive); in the experiment with SK-OV-3 it was > 100 µM (inactive); in the experiment with NCI-H460 it was 31.4 µM (inactive); in the experiment with UACC-62, 20.2 µM (inactive); in the experiment with DU-145, 20.9 µM (inactive).

Turning to `C[Si](C)(C)CCOCN(C(=O)C1=CCC2(CC1)OCCO2)c1ccccc1I`, the GI50 in the experiment with A549 is 23.6 µM (inactive); in the experiment on A498, 12.4 µM (inactive); in the experiment on HOP-62, 20.7 µM (inactive); with Malme-3M, 35.7 µM (inactive); in the experiment on UO-31, 19.4 µM (inactive); in the experiment with MDA-N it was 20.6 µM (inactive). Besides, the GI50 was 14.2 µM (inactive) with MCF7; 22.3 µM (inactive) in the experiment with SW-620; 20.9 µM (inactive) in the experiment on UACC-257; 21.6 µM (inactive) in the experiment on OVCAR-3; 17.8 µM in the experiment with HCT-15; 21.8 µM (inactive) with SF-268. Besides, the GI50 was 24.2 µM (inactive) in the experiment with CAKI-1; 16.8 µM (inactive) in the experiment with SK-OV-3; 20 µM (inactive) in the experiment with NCI-H460; 16.9 µM (inactive) with UACC-62; 25.4 µM (inactive) in the experiment with DU-145.

Consider `ON=C(CC(O)(C(F)(F)Cl)C(F)(F)Cl)CC(O)(C(F)(F)Cl)C(F)(F)Cl`, for which the GI50 was 5.46 µM (inactive) in the experiment on A549; 2.87 µM (inactive) in the experiment on A498; 2.84 µM (inactive) in the experiment with HOP-62; 2.99 µM (inactive) with Malme-3M; 3.33 µM (inactive) in the experiment on UO-31; 3.87 µM (inactive) with MCF7. The GI50 in the experiment on SW-620 is > 10 µM (inactive); in the experiment with HL-60 it was 4.1 µM (inactive); with UACC-257, 4.38 µM (inactive); in the experiment with OVCAR-3, 3.23 µM (inactive); in the experiment on HCT-15 it was 3.55 µM; in the experiment on SF-268, 3.55 µM (inactive). The GI50 was 5.46 µM (inactive) in the experiment with CAKI-1; 2.99 µM (inactive) in the experiment on SK-OV-3; 4.1 µM (inactive) in the experiment with NCI-H460; 3.46 µM (inactive) with UACC-62; 3.28 µM (inactive) with DU-145.

In the case of `O=P(CN1CCOCC1)(c1ccccc1)c1ccccc1`, the GI50 with A549, in the experiment on A498, with HOP-62, in the experiment with Malme-3M, in the experiment on UO-31 and in the experiment with SW-620 was > 100 µM (inactive) each time. Moreover, the GI50 was > 100 µM (inactive) with HL-60; > 100 µM (inactive) with UACC-257; > 100 µM (inactive) with OVCAR-3; greater than 100 µM in the experiment on HCT-15; > 100 µM (inactive) with SF-268; > 100 µM (inactive) with CAKI-1. For the same molecule, the GI50 in the experiment with SK-OV-3, in the experiment with NCI-H460 and with UACC-62 was > 100 µM (inactive) in each case.

For `COc1ccc(C(=O)O)c2c(=O)c3ccccc3[nH]c12`, the GI50 with A549 is > 100 µM (inactive); in the experiment with A498, > 100 µM (inactive); with HOP-62 it was > 31.6 µM (inactive); in the experiment on Malme-3M, > 100 µM (inactive); in the experiment on UO-31 it was > 100 µM (inactive); in the experiment with SW-620, > 100 µM (inactive). The GI50 in the experiment on HL-60 is > 100 µM (inactive); with UACC-257, > 100 µM (inactive); in the experiment on OVCAR-3, > 10 µM (inactive); with HCT-15, greater than 100 µM; with SF-268, > 100 µM (inactive); with CAKI-1, > 100 µM (inactive). The GI50 with SK-OV-3, with NCI-H460 and with UACC-62 was > 100 µM (inactive) throughout.

For `CC1(C)C=C(/C=N/Nc2ccc(Br)cc2)C(C#N)=C(O)C1(C#N)C#N`, the GI50 in the experiment with A549 is 39.2 µM (inactive); with HOP-62 it was 63 µM (inactive); in the experiment on Malme-3M it was 89.7 µM (inactive); in the experiment on UO-31, 22.8 µM (inactive); in the experiment with MDA-N, 42.2 µM (inactive); in the experiment with MCF7, 26.5 µM (inactive). Further, the GI50 in the experiment with SW-620 was 36.5 µM (inactive); in the experiment with HL-60, 26.1 µM (inactive); in the experiment with UACC-257, 31.8 µM (inactive); in the experiment with OVCAR-3, 31.9 µM (inactive); in the experiment on SF-268, 40.9 µM (inactive); in the experiment with CAKI-1, 36.1 µM (inactive). In addition, the GI50 was 57.8 µM (inactive) with SK-OV-3, 33.1 µM (inactive) in the experiment with NCI-H460, 38.7 µM (inactive) in the experiment with UACC-62 and 66.7 µM (inactive) with DU-145.

With `O=S(=O)(O)c1ccc(/N=N/c2ccc(/N=N/c3c(O)ccc4ccccc34)c(S(=O)(=O)O)c2)cc1`, the GI50 with A549, in the experiment with HOP-62, with Malme-3M, with UO-31, in the experiment on MCF7 and with SW-620 was > 100 µM (inactive) each time. Moreover, the GI50 in the experiment on HL-60 is > 100 µM (inactive); in the experiment with UACC-257, > 100 µM (inactive); in the experiment with OVCAR-3, > 100 µM (inactive); in the experiment with HCT-15, greater than 100 µM; in the experiment with SF-268, > 100 µM (inactive); in the experiment with CAKI-1 it was > 100 µM (inactive). The GI50 in the experiment on SK-OV-3, in the experiment on BT-549, with NCI-H460 and with UACC-62 was > 100 µM (inactive) in each case.

On to `COc1ccc(-c2cc(-c3ccc(Nc4ccnc5cc(C(F)(F)F)ccc45)cc3)nc(N)c2C#N)cc1`, for which the GI50 with A549 was > 100 µM (inactive); in the experiment on A498, > 100 µM (inactive); in the experiment with HOP-62, 43.6 µM (inactive); in the experiment on Malme-3M, > 100 µM (inactive); in the experiment on UO-31, > 100 µM (inactive); in the experiment with MCF7, 35.9 µM (inactive). The GI50 with SW-620 is 62.1 µM (inactive); in the experiment on HL-60, > 100 µM (inactive); in the experiment with OVCAR-3 it was 14.6 µM (inactive); with HCT-15, 60.5 µM; with CAKI-1, > 100 µM (inactive); with SK-OV-3, > 100 µM (inactive). Further, the GI50 in the experiment on BT-549 was 46.2 µM (inactive); in the experiment on NCI-H460, > 100 µM (inactive); in the experiment with UACC-62, 40.6 µM (inactive); with DU-145, > 100 µM (inactive).

`COc1ccc(/C=C/c2cc(O)cc(OC)c2)cc1`: the GI50 with A549 is 97.3 µM (inactive); in the experiment on A498 it was > 100 µM (inactive); with HOP-62, > 100 µM (inactive); in the experiment on Malme-3M it was 86.3 µM (inactive); in the experiment on UO-31, > 100 µM (inactive); in the experiment on MCF7, > 100 µM (inactive). The GI50 in the experiment with SW-620 is > 100 µM (inactive); with HL-60 it was 79.6 µM (inactive); in the experiment with UACC-257 it was > 100 µM (inactive); in the experiment with OVCAR-3, > 100 µM (inactive); in the experiment with HCT-15, 0.855 µM; in the experiment with SF-268, > 100 µM (inactive). The GI50 with CAKI-1 is > 100 µM (inactive); with SK-OV-3, > 100 µM (inactive); with BT-549 it was 22.9 µM (inactive); with NCI-H460, 84.5 µM (inactive); in the experiment on UACC-62, > 100 µM (inactive); with DU-145, > 100 µM (inactive).

Consider `CC[C@H](CC[C@@H](C)[C@H]1CC[C@H]2[C@@H]3CC=C4C[C@@H](O)CC[C@]4(C)[C@H]3CC[C@]12C)C(C)C` [BETA-SITOSTEROL], for which the GI50 in the experiment on A549, in the experiment on HOP-62, in the experiment with Malme-3M, in the experiment on UO-31, in the experiment with MDA-N and with MCF7 was > 100 µM (inactive) in each case. Also, the GI50 in the experiment with SW-620 was > 100 µM (inactive); in the experiment on HL-60 it was > 10 µM (inactive); in the experiment on UACC-257, > 100 µM (inactive); with OVCAR-3, > 100 µM (inactive); in the experiment on HCT-15 it was greater than 100 µM; with SF-268, > 100 µM (inactive). For the same molecule, the GI50 in the experiment with CAKI-1, with NCI-H460 and with DU-145 was > 100 µM (inactive) each time.

These data come from ChEMBL document CHEMBL1201862, “PubChem BioAssay data set” (2004).
